Laboratory results from patent US20070128217A1 (priority 2003, published 2007).

What was measured:
[1] = system: control sera (pooled serum of ten healthy LUMC hospital workers; commercial negative donor pooled serum from the Dutch bloodbank); format: binding, human; parameters: Binding of Control serum LUMC to linear peptides / Binding of Control serum Blood-bank to linear peptides / Binding of Control serum LUMC to looped peptides / Binding of Control Serum Blood-Bank to Looped peptides / Binding of Control serum LUMC to linear peptides of the protein M of SARS-CoV Urbani / Binding of Control serum Blood-bank to linear peptides of the protein M of SARS-CoV Urbani / Binding of Control serum LUMC to looped peptides of the protein M of SARS-CoV Urbani / Binding of Control Serum Blood-Bank to Looped peptides of the protein M of SARS-CoV Urbani: unit not given here
[2] = system: rabbit serum obtained by immunizing a rabbit with the SARS-CoV strain Frankfurt 1; format: binding; parameters: Binding of a rabbit serum to linear peptides / Binding of a rabbit serum to looped peptides / Rabbit serum linear peptides / Rabbit serum looped peptides / Binding of a rabbit serum to linear peptides of protein N of SARS-CoV Urbani (Rabbit serum linear peptides) / Binding of a rabbit serum to looped/cyclic peptides of protein N of SARS-CoV Urbani (Rabbit serum looped peptides): unit not given here
[3] = system: recombinant human anti-SARS-CoV antibody 03-018; format: binding; parameters: Binding of antibody 03-018 to linear peptides of the N protein of SARS-CoV Urbani / Binding of antibody 03-018 to looped/cyclic peptides of the N protein of SARS-CoV Urbani: unit not given here
[4] = system: antibodies in sera from SARS patients (sera 1a, 1b, 2, 6, 37, 62, London, SARS-yellow, SARS-green); format: binding, human; parameters: Binding of serum 6 to linear peptides of protein X1 of SARS-CoV Urbani / Binding of serum 37 to linear peptides of protein X1 of SARS-CoV Urbani / Binding of serum 6 to looped/cyclic peptide (PEPSCAN-ELISA) / Binding of serum 37 to looped/cyclic peptide (PEPSCAN-ELISA) / Binding of serum 37 to looped/cyclic peptides of protein X1 of SARS-CoV Urbani / Binding of serum 6 to linear peptides of protein X2 / Binding of serum 37 to linear peptides of protein X2 / Binding of serum 37 to looped/cyclic peptides of protein X2 of SARS-CoV Urbani / Binding of serum 6 to linear peptides of protein M of SARS-CoV Urbani / Binding of serum 37 to linear peptides of protein M of SARS-CoV Urbani / Binding of serum 6 to looped/cyclic peptides of protein M of SARS-CoV Urbani / Binding of serum 37 to looped/cyclic peptides of protein M of SARS-CoV Urbani / Binding of serum 6 to linear peptides of protein X3 of SARS-CoV Urbani / Binding of serum 37 to linear peptides of protein X3 of SARS-CoV Urbani / Binding of serum 37 to looped/cyclic peptides of protein X3 of SARS-CoV Urbani / Binding of serum 6 to linear peptides of protein X4 of SARS-CoV Urbani / Binding of serum 37 to linear peptides of protein X4 of SARS-CoV Urbani / Binding of serum 37 to looped/cyclic peptides of protein X4 of SARS-CoV Urbani / Binding of serum 6 to linear peptides of protein X5 of SARS-CoV Urbani / Binding of serum 37 to linear peptides of protein X5 of SARS-CoV Urbani / Binding of serum 37 to looped/cyclic peptides of protein X5 of SARS-CoV Urbani / Binding of serum 6 to linear peptides of protein N of SARS-CoV Urbani / Binding of serum 37 to linear peptides of protein N of SARS-CoV Urbani / Binding of serum 6 to linear peptide (PEPSCAN-ELISA) / Binding of serum 1a to looped/cyclic peptides of protein N of SARS-CoV Urbani / Binding of serum 1b to looped/cyclic peptides of protein N of SARS-CoV Urbani / Binding of serum 2 to looped/cyclic peptides of protein N of SARS-CoV Urbani / Binding of serum 6 to looped/cyclic peptides of protein N of SARS-CoV Urbani / Binding of serum 37 to looped/cyclic peptides of protein N of SARS-CoV Urbani / Binding of serum 62 to looped/cyclic peptides of protein N of SARS-CoV Urbani / Binding of serum London to looped/cyclic peptides of protein N of SARS-CoV Urbani / Binding of serum SARS-green to looped/cyclic peptides of protein N of SARS-CoV Urbani: unit not given here

Sequence	Binding of Control Serum Blood-Bank to Looped peptides [1]	Binding of Control serum Blood-bank to linear peptides [1]	Binding of Control serum LUMC to linear peptides [1]	Binding of Control serum LUMC to looped peptides [1]	Binding of a rabbit serum to linear peptides of protein N of SARS-CoV Urbani (Rabbit serum linear peptides) [2]	Binding of a rabbit serum to looped/cyclic peptides of protein N of SARS-CoV Urbani (Rabbit serum looped peptides) [2]	Binding of antibody 03-018 to linear peptides of the N protein of SARS-CoV Urbani [3]	Binding of antibody 03-018 to looped/cyclic peptides of the N protein of SARS-CoV Urbani [3]	Binding of serum 1a to looped/cyclic peptides of protein N of SARS-CoV Urbani [4]	Binding of serum 1b to looped/cyclic peptides of protein N of SARS-CoV Urbani [4]	Binding of serum 2 to looped/cyclic peptides of protein N of SARS-CoV Urbani [4]	Binding of serum 6 to looped/cyclic peptides of protein N of SARS-CoV Urbani [4]	Binding of serum 37 to looped/cyclic peptides of protein N of SARS-CoV Urbani [4]	Binding of serum 62 to looped/cyclic peptides of protein N of SARS-CoV Urbani [4]	Binding of serum London to looped/cyclic peptides of protein N of SARS-CoV Urbani [4]	Binding of serum SARS-green to looped/cyclic peptides of protein N of SARS-CoV Urbani [4]	Binding of serum SARS-yellow to looped/cyclic peptides of protein N of SARS-CoV Urbani [4]	Binding of serum 1a to linear peptides of protein N of SARS-CoV Urbani [4]	Binding of serum 1b to linear peptides of protein N of SARS-CoV Urbani [4]	Binding of serum 2 to linear peptides of protein N of SARS-CoV Urbani [4]	further results
KSAAEASKKPRQKRT	0.4	0.7	0.7	0.4	0.1	0.2	0.1	0.1	0.2	0.1	0.2	0.1	0.4	0.2	0.3	0.1	0.1				Recognition of the peptide by sera of SARS-CoV infected individuals, and form (linear, looped/cyclic) in which it is recognized [4]: recognized in linear form
KTFPPTEPKKDKKKK					0.1	0.1	0.1	0.2	0.2	0.1	0.2	0.0	0.4	0.2	0.2	0.0	0.2	0.2	0.1	0.4	Control Serum Blood-Bank Looped peptides [1]: 0.3; Control serum Blood-bank linear peptides [1]: 0.6; Control serum LUMC linear peptides [1]: 0.7; Control serum LUMC looped peptides [1]: 0.3; Binding of serum 6 to linear peptides of protein N of SARS-CoV Urbani [4]: 0.2; Binding of serum 37 to linear peptides of protein N of SARS-CoV Urbani [4]: 0.8; Binding of serum 62 to linear peptides of protein N of SARS-CoV Urbani [4]: 0.6; Binding of serum London to linear peptides of protein N of SARS-CoV Urbani [4]: 0.4; Binding of serum SARS-green to linear peptides of protein N of SARS-CoV Urbani [4]: 0.1; Binding of serum SARS-yellow to linear peptides of protein N of SARS-CoV Urbani [4]: 0.8
LDRLNQLESKVSGKG	0.5	1.0	0.8	0.5	0.0	0.4	0.1	0.2	0.4	0.3	0.4	0.3	0.4	0.4	0.4	0.2	0.3				Binding of serum 1a to linear peptide (PEPSCAN-ELISA) [4]: 0.3; Binding of serum 1b to linear peptide (PEPSCAN-ELISA) [4]: 0.2; Binding of serum 2 to linear peptide (PEPSCAN-ELISA) [4]: 0.3; Binding of serum 6 to linear peptide (PEPSCAN-ELISA) [4]: 0.3; Binding of serum 37 to linear peptide (PEPSCAN-ELISA) [4]: 0.5; Binding of serum 62 to linear peptide (PEPSCAN-ELISA) [4]: 0.6; Binding of serum London to linear peptide (PEPSCAN-ELISA) [4]: 0.5; Binding of serum SARS-green to linear peptide (PEPSCAN-ELISA) [4]: 0.8; Binding of serum SARS-yellow to linear peptide (PEPSCAN-ELISA) [4]: 0.7
LIRQGTDYKHWPQIA	0.6	0.7	0.7	0.5	0.2	0.0	0.1	0.1	0.4	0.5	0.5	0.3	0.6	0.5	0.3	1.0	1.1	0.3	0.2	0.4	Binding of serum 6 to linear peptides of protein N of SARS-CoV Urbani [4]: 0.2; Binding of serum 37 to linear peptides of protein N of SARS-CoV Urbani [4]: 0.8; Binding of serum 62 to linear peptides of protein N of SARS-CoV Urbani [4]: 0.9; Binding of serum London to linear peptides of protein N of SARS-CoV Urbani [4]: 0.9; Binding of serum SARS-green to linear peptides of protein N of SARS-CoV Urbani [4]: 0.4; Binding of serum SARS-yellow to linear peptides of protein N of SARS-CoV Urbani [4]: 0.6
LLDRLNQLESKVSGK	0.3	0.7	0.6	0.2	0.6	0.1	0.1	0.2	0.2	0.1	0.2	0.1	0.4	0.4	0.3	0.0	0.1				Binding of serum 1a to linear peptide (PEPSCAN-ELISA) [4]: 0.2; Binding of serum 1b to linear peptide (PEPSCAN-ELISA) [4]: 0.1; Binding of serum 2 to linear peptide (PEPSCAN-ELISA) [4]: 0.3; Binding of serum 6 to linear peptide (PEPSCAN-ELISA) [4]: 0.2; Binding of serum 37 to linear peptide (PEPSCAN-ELISA) [4]: 0.7; Binding of serum 62 to linear peptide (PEPSCAN-ELISA) [4]: 0.6; Binding of serum London to linear peptide (PEPSCAN-ELISA) [4]: 0.5; Binding of serum SARS-green to linear peptide (PEPSCAN-ELISA) [4]: 0.4; Binding of serum SARS-yellow to linear peptide (PEPSCAN-ELISA) [4]: 0.7
